Among the data in patent US20240150356A1, “Pyrimidine amide compounds and use thereof” (ALPHALA CO., LTD., priority 2019, published 2024) are LC50 values, retold here.

For orientation: LC50 means the concentration lethal to half of the exposed cells or organisms.

In the assay the test system is Hep3B cells (hepatocellular carcinoma cell line). The experiment in a line: In vitro MTS cell viability assay (NCI-60 methodology), Hep3B. Type of assay: cell-based. The note with it: Homo sapiens, 48 h, Table 6, MTS, 2 days drug incubation, 50% reduction vs time zero, read-out: Hep3B LC50. In short, it runs like this: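 Hep3B cells given five 2-fold dilutions of compound for 2 days, with viability by MTS measured at time zero and at end. LC50 is the concentration giving a 50% fall in viable cells relative to the start of treatment, per NCI-60 formula.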
On the technique in general: Formazan colour is commonly taken as a measure of viable cells.
Turning to `O=C(Nc1nc(-c2ccc3c(c2)OCO3)nc2c1cnn2-c1cccc(F)c1)c1ccc([N+](=O)[O-])s1` [Compound 6-92, N-(6-(benzo[d][1,3]dioxol-5-yl)-1-(3-fluorophenyl)-1H-pyrazolo[3,4-d]pyrimidin-4-yl)-5-nitrothiophene-2-carboxamide], the LC50 is 0.45 µM. Take `COCCN(C)c1ccc(-c2nc(NC(=O)c3ccc([N+](=O)[O-])s3)c3cnn(-c4cccc(F)c4)c3n2)cn1` [Compound 6-93]: the LC50 amounted to 0.4 µM. Consider `COCCOc1ccc(-c2nc(NC(=O)c3ccc([N+](=O)[O-])s3)c3cnn(-c4cccc(F)c4)c3n2)cn1` [Compound 6-94, N-(1-(3-fluorophenyl)-6-(6-(2-methoxyethoxy)pyridin-3-yl)-1H-pyrazolo[3,4-d]pyrimidin-4-yl)-5-nitrothiophene-2-carboxamide], for which the LC50 worked out at 0.28 µM. In the case of `CCOCCOc1ccc(-c2nc(NC(=O)c3ccc([N+](=O)[O-])s3)c3cnn(-c4cccc(F)c4)c3n2)cn1` [Compound 6-95, N-(6-(6-(2-ethoxyethoxy)pyridin-3-yl)-1-(3-fluorophenyl)-1H-pyrazolo[3,4-d]pyrimidin-4-yl)-5-nitrothiophene-2-carboxamide], the 50% lethal concentration (LC50) was 0.29 µM. Consider `CCOCCOCCOc1ccc(-c2nc(NC(=O)c3ccc([N+](=O)[O-])s3)c3cnn(-c4cccc(F)c4)c3n2)cn1` [Compound 6-96, N-(6-(6-(2-(2-ethoxyethoxy)ethoxy)pyridin-3-yl)-1-(3-fluorophenyl)-1H-pyrazolo[3,4-d]pyrimidin-4-yl)-5-nitrothiophene-2-carboxamide], for which the 50% lethal concentration (LC50) amounted to 0.35 µM. `O=C(Nc1nc(N2CCC(F)(F)C2)nc2c1cnn2-c1ccc(F)cc1)c1ccc([N+](=O)[O-])s1` [Compound 6-97, N-(6-(3,3-difluoropyrrolidin-1-yl)-1-(4-fluorophenyl)-1H-pyrazolo[3,4-d]pyrimidin-4-yl)-5-nitrothiophene-2-carboxamide]: the 50% lethal concentration (LC50) was determined as 0.57 µM. `O=C(Nc1nc(N2CCC(F)(F)CC2)nc2c1cnn2-c1ccc(F)cc1)c1ccc([N+](=O)[O-])s1` [Compound 6-98, N-(6-(4,4-difluoropiperidin-1-yl)-1-(4-fluorophenyl)-1H-pyrazolo[3,4-d]pyrimidin-4-yl)-5-nitrothiophene-2-carboxamide]: the LC50 was determined as 0.43 µM.

Turning to `C[C@@H]1CN(c2nc(NC(=O)c3ccc([N+](=O)[O-])s3)c3cnn(-c4ccc(F)cc4)c3n2)C[C@H](C)O1` [Compound 6-99, N-(6-((2S,6R)-2,6-dimethylmorpholino)-1-(4-fluorophenyl)-1H-pyrazolo[3,4-d]pyrimidin-4-yl)-5-nitrothiophene-2-carboxamide], the LC50 came out at 0.61 µM. As for `COC(=O)[C@@H]1CCCN1c1nc(NC(=O)c2ccc([N+](=O)[O-])s2)c2cnn(-c3ccc(F)cc3)c2n1` [Compound 6-100, methyl (1-(4-fluorophenyl)-4-(5-nitrothiophene-2-carboxamido)-1H-pyrazolo [3,4-d]pyrimidin-6-yl)-L-prolinate], the median lethal concentration (LC50) stood at 0.74 µM. Turning to `CCOC(=O)[C@@H]1CCCN1c1nc(NC(=O)c2ccc([N+](=O)[O-])s2)c2cnn(-c3ccc(F)cc3)c2n1` [Compound 6-101, ethyl (1-(4-fluorophenyl)-4-(5-nitrothiophene-2-carboxamido)-1H-pyrazolo[3,4-d]pyrimidin-6-yl)-L-prolinate], the LC50 was > 1.25 µM. For `O=C(Nc1nc(N2CCC[C@H]2CO)nc2c1cnn2-c1ccc(F)cc1)c1ccc([N+](=O)[O-])s1` [Compound 6-102, (S)—N-(1-(4-fluorophenyl)-6-(2-(hydroxymethyl)pyrrolidin-1-yl)-1H-pyrazolo[3,4-d]pyrimidin-4-yl)-5-nitrothiophene-2-carboxamide], the 50% lethal concentration (LC50) came to 1.3 µM. With `COC[C@@H]1CCCN1c1nc(NC(=O)c2ccc([N+](=O)[O-])s2)c2cnn(-c3ccc(F)cc3)c2n1` [Compound 6-103, (S)—N-(1-(4-fluorophenyl)-6-(2-(methoxymethyl)pyrrolidin-1-yl)-1H-pyrazolo[3,4-d]pyrimidin-4-yl)-5-nitrothiophene-2-carboxamide], the LC50 is 0.78 µM. For the compound `CCCOC[C@@H]1CCCN1c1nc(NC(=O)c2ccc([N+](=O)[O-])s2)c2cnn(-c3ccc(F)cc3)c2n1` [Compound 6-105, (S)—N-(1-(4-fluorophenyl)-6-(2-(propoxymethyl)pyrrolidin-1-yl)-1H-pyrazolo[3,4-d]pyrimidin-4-yl)-5-nitrothiophene-2-carboxamide], the LC50 was determined as 0.42 µM. As to `O=C(Nc1nc(-c2ccsc2)nc2c1cnn2-c1ccc(F)cc1)c1ccc([N+](=O)[O-])s1` [Compound 6-107], the LC50 is 0.37 µM.

Regarding `Cc1ccn(-c2nc(NC(=O)c3ccc([N+](=O)[O-])s3)c3cnn(-c4ccc(F)cc4)c3n2)n1` [Compound 6-108], the median lethal concentration (LC50) is 0.09 µM. For the compound `O=C(Nc1nc(-n2ccc(C(F)(F)F)n2)nc2c1cnn2-c1ccc(F)cc1)c1ccc([N+](=O)[O-])s1` [Compound 6-109, N-(1-(4-fluorophenyl)-6-(3-(trifluoromethyl)-1H-pyrazol-1-yl)-1H-pyrazolo[3,4-d]pyrimidin-4-yl)-5-nitrothiophene-2-carboxamide], the median lethal concentration (LC50) was 0.38 µM.

For `O=C(Nc1nc(-c2ccccc2F)nc2c1cnn2-c1ccc(F)cc1)c1ccc([N+](=O)[O-])s1` [Compound 6-113, N-(6-(2-fluorophenyl)-1-(4-fluorophenyl)-1H-pyrazolo[3,4-d]pyrimidin-4-yl)-5-nitrothiophene-2-carboxamide], the LC50 amounted to 0.4 µM. On to `O=C(Nc1nc(-c2ccc(C(F)(F)F)cc2)nc2c1cnn2-c1ccc(F)cc1)c1ccc([N+](=O)[O-])s1` [Compound 6-122, N-(1-(4-fluorophenyl)-6-(4-(trifluoromethyl)phenyl)-1H-pyrazolo[3,4-d]pyrimidin-4-yl)-5-nitrothiophene-2-carboxamide], for which the 50% lethal concentration (LC50) was determined as 0.28 µM. On to `O=C(Nc1nc(-c2ccc(OC(F)(F)F)cc2)nc2c1cnn2-c1ccc(F)cc1)c1ccc([N+](=O)[O-])s1` [Compound 6-123, N-(1-(4-fluorophenyl)-6-(4-(trifluoromethoxy)phenyl)-1H-pyrazolo[3,4d]pyrimidin-4-yl)-5-nitrothiophene-2-carboxamide], for which the LC50 came to 0.34 µM.

Consider `O=C(Nc1nc(-c2ccc3c(c2)OCO3)nc2c1cnn2-c1ccc(F)cc1)c1ccc([N+](=O)[O-])s1` [Compound 6-124, N-(6-(benzo[d][1,3]dioxol-5-yl)-1-(4-fluorophenyl)-1H-pyrazolo[3,4-d]pyrimidin-4-yl)-5-nitrothiophene-2-carboxamide], for which the 50% lethal concentration (LC50) was determined as 0.55 µM.

For the compound `O=C(Nc1nc(-c2ccc(F)cc2F)nc2c1cnn2-c1ccc(F)cc1)c1ccc([N+](=O)[O-])s1` [Compound 6-126], the LC50 was 0.35 µM. `CCOc1cc(Cl)ccc1-c1nc(NC(=O)c2ccc([N+](=O)[O-])s2)c2cnn(-c3ccc(F)cc3)c2n1` [Compound 6-129, N-(6-(4-chloro-2-ethoxyphenyl)-1-(4-fluorophenyl)-1H-pyrazolo[3,4-d]pyrimidin-4-yl)-5-nitrothiophene-2-carboxamide]: the 50% lethal concentration (LC50) was > 3 µM. As for `COCCN(C)c1ccc(-c2nc(NC(=O)c3ccc([N+](=O)[O-])s3)c3cnn(-c4ccc(F)cc4)c3n2)cn1` [Compound 6-131, N-(1-(4-fluorophenyl)-6-(6-((2-methoxyethyl)(methyl)amino)pyridin-3-yl)-1H-pyrazolo[3,4-d]pyrimidin-4-yl)-5-nitrothiophene-2-carboxamide], the 50% lethal concentration (LC50) came out at 0.37 µM.
